Columns and labels:
Format in all cases: biochemical
Aurora A kinase = Aurora A kinase (Homo sapiens, UniProt O14965); experiment: Aurora A kinase inhibition
Description: (§1) BPR1J-340, a urea-substituted 3-phenyl-1H-5-pyrazolylamine-based compound, was designed through chemical modification of sulfonamide series of derivatives (BPR1J-097 series) by a structure-activity relationship (SAR) study (Fig. 1), [32]. For kinase inhibition specificity screening, BPR1J-340 was tested against 59 protein kinases covering the major oncogenic kinases of human protein kinome. […] In addition, BPR1J-340 inhibited TRKA, which is associated with the growth and metastasis of breast cancers, with an IC50 value of 8 nM. Given the high similarity of the ATP binding pockets of FLT3 and the Aurora kinases, the inhibitory activity toward Aurora A and Aurora B were measured. […] Taken together, BPRJ-340 is a selective kinase inhibitor with in vitro activity against FLT3, VEGFR2, VEGFR3 and TRKA receptor tyrosine kinases.

FLT3 D835Y = target: T1, FLT3 D835Y (Homo sapiens, UniProt P36888, D835Y); experiment: Invitrogen SelectScreen kinase profiling / IC50
T1 sequence (P36888 27-993 D835Y): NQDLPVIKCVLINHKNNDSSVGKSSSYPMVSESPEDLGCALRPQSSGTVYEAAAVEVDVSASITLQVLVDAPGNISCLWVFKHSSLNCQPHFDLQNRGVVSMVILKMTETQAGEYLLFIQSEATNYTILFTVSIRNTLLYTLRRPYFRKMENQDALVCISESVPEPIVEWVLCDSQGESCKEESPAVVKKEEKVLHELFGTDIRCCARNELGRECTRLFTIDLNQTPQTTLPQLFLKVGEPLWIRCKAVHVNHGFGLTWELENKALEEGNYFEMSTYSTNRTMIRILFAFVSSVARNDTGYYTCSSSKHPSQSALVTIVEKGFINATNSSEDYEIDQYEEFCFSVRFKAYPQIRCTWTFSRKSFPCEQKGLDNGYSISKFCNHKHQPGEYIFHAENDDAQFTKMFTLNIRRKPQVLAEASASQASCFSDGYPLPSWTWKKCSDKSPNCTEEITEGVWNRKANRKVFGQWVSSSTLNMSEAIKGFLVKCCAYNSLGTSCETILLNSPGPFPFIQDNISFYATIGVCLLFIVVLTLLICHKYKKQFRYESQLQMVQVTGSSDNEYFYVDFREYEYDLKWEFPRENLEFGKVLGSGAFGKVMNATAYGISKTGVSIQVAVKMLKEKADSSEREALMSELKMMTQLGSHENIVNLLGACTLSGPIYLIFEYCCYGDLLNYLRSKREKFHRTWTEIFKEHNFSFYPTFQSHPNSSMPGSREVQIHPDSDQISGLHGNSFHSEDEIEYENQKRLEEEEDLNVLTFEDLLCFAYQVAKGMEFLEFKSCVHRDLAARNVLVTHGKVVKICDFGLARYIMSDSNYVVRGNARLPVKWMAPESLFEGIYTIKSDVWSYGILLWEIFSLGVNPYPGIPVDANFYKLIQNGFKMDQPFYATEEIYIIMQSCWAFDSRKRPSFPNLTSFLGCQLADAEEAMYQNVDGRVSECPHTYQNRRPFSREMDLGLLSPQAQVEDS
Description: (§2) The FLT3 and VEGFR1/2 Kinase-Glo kinase assays were performed as reported by our earlier study. The VEGFR3 activity analysis was conducted using the same protocol described in the VEGFR1/2 assay. The kinase inhibition profiling and inhibitory activity of FLT3-D835Y, CSF1R, and TRKA were determined by Invitrogen SelectScreen® kinase profiling service (Carlsbad, California, USA).
as §1

CSF1R (FMS) = CSF1R (FMS) (Homo sapiens, UniProt P07333); experiment: Invitrogen SelectScreen kinase profiling / IC50
Description: as §2, §1

NTRK1 (TRKA) = NTRK1 (TRKA) (Homo sapiens, UniProt P04629); experiment: Invitrogen SelectScreen kinase profiling / IC50
Description: as §2, §1

FLT1 (VEGFR1) = target: T2, FLT1 (VEGFR1) (Homo sapiens, UniProt P17948); experiment: VEGFR1 Kinase-Glo kinase assay
T2 construct: VEGFR1 (residues R781-I1338); made in house
Description: The FLT3 inhibitors, BPR1J-340 and AC220, were synthesized by our laboratory. The histone deacetylase inhibitor vorinostat (SAHA) was purchased from SelleckBio (Houston, TX, USA). All inhibitors were dissolved in dimethylsulfoxide (DMSO) at a stock concentration of 10 mM. The anti-FLT3 (sc-480, Santa Cruz Biotechnology, Santa Cruz, CA, USA), anti-pFLT3-Tyr591 (#3461, Cell Signaling Technology, Beverly, MA, USA) anti-STAT5 (#9363, Cell Signaling Technology), anti-pSTAT5–Tyr694 (#9351, Cell Signaling Technology), anti-cleaved poly ADP-ribose polymerase (PARP) (#9542, Cell Signaling Technology), anti-Mcl-1 (#4572, Cell Signaling Technology), anti-caspase 3 (#9662, Cell Signaling Technology) and anti-β-actin (Gtx110546, GeneTex, Irvine, CA, USA) antibodies were purchased for Western blotting analysis. The preparation of recombinant proteins, FLT3 (residues Y567-S993), VEGFR1 (residues R781-I1338) and VEGFR2 (residues V789-V1356), for biochemical kinase assay was described previously. The VEGFR3 (residues M800-Y1363) proteins were purchased from Upstate (Billerica, MA, USA).
The FLT3 and VEGFR1/2 Kinase-Glo kinase assays were performed as reported by our earlier study. […] The kinase inhibition profiling and inhibitory activity of FLT3-D835Y, CSF1R, and TRKA were determined by Invitrogen SelectScreen® kinase profiling service (Carlsbad, California, USA).

Chain of CSF1R (FMS) (P07333 20-972): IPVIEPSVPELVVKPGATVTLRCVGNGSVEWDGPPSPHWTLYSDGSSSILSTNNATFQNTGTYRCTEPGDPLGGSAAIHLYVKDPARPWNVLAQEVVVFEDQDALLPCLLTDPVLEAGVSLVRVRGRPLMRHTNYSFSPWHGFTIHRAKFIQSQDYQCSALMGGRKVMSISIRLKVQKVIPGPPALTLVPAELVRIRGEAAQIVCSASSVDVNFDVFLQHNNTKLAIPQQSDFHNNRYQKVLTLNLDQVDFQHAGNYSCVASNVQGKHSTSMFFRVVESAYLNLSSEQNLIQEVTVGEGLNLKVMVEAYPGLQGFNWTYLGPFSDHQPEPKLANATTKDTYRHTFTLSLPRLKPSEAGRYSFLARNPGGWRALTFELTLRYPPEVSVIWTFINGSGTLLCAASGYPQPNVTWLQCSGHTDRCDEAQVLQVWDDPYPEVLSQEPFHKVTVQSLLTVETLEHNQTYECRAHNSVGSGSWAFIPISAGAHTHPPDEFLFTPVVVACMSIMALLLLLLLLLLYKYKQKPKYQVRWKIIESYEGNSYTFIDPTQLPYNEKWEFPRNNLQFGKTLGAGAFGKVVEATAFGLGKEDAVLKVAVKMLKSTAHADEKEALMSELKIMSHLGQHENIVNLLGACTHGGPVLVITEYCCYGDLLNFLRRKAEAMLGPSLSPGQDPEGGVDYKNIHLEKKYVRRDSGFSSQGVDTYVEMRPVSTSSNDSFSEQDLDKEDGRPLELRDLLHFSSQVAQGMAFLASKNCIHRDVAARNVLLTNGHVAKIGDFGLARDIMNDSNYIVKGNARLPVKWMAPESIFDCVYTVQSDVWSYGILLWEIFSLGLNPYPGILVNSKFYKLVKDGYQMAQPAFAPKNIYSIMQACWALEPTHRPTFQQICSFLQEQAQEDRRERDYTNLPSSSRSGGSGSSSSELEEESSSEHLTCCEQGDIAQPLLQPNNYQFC
Chain of NTRK1 (TRKA) (P04629 33-796): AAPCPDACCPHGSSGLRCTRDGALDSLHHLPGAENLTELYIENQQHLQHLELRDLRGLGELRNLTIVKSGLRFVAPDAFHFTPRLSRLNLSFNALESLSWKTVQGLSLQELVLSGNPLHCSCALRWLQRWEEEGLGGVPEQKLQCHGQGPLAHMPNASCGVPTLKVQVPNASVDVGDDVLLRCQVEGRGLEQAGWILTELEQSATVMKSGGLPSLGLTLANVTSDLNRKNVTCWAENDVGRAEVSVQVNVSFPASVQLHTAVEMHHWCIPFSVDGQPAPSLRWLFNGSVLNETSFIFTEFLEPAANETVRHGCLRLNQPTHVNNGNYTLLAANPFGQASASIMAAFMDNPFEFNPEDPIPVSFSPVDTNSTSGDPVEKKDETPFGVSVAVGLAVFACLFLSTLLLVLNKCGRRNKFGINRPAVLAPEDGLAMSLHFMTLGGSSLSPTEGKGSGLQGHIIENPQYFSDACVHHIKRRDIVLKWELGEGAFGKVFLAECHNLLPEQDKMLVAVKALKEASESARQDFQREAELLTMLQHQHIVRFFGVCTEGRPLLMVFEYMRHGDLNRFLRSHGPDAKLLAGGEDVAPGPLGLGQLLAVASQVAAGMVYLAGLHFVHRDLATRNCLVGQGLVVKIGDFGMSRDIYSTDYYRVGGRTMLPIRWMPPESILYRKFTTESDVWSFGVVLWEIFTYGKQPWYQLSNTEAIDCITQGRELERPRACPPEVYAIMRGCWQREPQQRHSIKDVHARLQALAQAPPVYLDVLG
T2 sequence (P17948 781-1338): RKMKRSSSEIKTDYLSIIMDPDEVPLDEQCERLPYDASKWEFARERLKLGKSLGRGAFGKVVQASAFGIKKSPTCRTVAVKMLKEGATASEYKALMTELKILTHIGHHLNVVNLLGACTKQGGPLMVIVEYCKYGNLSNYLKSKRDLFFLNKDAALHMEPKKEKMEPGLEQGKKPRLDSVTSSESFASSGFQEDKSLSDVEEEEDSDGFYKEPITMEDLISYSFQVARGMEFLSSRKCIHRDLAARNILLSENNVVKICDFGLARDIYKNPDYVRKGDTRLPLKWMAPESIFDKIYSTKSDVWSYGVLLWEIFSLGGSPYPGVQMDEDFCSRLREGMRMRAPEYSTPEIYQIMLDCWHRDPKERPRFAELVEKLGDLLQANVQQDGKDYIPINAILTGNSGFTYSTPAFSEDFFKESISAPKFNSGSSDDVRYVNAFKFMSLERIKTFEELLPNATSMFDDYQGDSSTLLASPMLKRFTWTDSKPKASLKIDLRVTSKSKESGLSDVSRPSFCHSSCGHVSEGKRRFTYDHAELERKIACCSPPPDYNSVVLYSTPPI
Chain of Aurora A kinase (O14965 whole entry): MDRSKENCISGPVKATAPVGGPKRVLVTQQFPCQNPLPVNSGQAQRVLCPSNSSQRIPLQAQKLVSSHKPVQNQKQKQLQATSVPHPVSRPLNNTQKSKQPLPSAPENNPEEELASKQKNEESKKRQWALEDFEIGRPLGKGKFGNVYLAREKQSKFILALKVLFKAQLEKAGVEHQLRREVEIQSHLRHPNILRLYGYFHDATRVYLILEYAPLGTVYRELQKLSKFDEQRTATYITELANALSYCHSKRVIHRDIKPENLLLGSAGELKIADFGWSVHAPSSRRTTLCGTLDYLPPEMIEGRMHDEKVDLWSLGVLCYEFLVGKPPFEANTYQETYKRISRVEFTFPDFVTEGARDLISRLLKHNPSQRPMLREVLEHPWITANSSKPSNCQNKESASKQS

CCc1cc(NC(=O)NCc2ccc(-c3cc(NC(=O)c4ccc(CN5CCN(C)CC5)cc4)[nH]n3)cc2)no1 [BPR1J-340, N1-(3-4-[([(5-ethyl-3-isoxazolyl)amino]carbonylamino)methyl]phenyl-1H-5-pyrazolyl)-4-[(4-methylpiperazino)methyl]benzamide]
IC50 (Aurora A kinase): 1040 nM
IC50 (FLT3 D835Y; FLT3-D835Y, Invitrogen SelectScreen kinase assay): 19 nM
inhibition at 0.1 µM (FLT3 D835Y; FLT3 D835Y, 100 nM): 78%
inhibition at 0.1 µM (CSF1R (FMS); 100 nM): 73%
IC50 (CSF1R (FMS); Invitrogen SelectScreen kinase assay): 78 nM
inhibition at 0.1 µM (NTRK1 (TRKA); NTRK1 (TRKA), 100 nM): 89%
IC50 (NTRK1 (TRKA); TRKA, Invitrogen SelectScreen kinase assay): 8 nM
IC50 (FLT1 (VEGFR1)): 164 ± 24 nM

From article PMC3885398, “Evaluation of the Antitumor Effects of BPR1J-340, a Potent and Selective FLT3 Inhibitor, Alone or in Combination with an HDAC Inhibitor, Vorinostat, in AML Cancer” (PLoS ONE, 2014)
